Data published in US6737383B1, “Herbicidal oxadiazolidines” (priority 1999, dated 2004).

Assays:
[1] = system: cocklebur; experiment: Test B pre/postemergence cocklebur; type: in vivo, Xanthium strumarium
Summary of the method: (§1)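 Test chemicals in a non-phytotoxic solvent mixture with surfactant were sprayed preemergence onto planted seeds and postemergence onto plants 2 to 18 cm tall (1- to 4-leaf stage). After twelve to sixteen days in a greenhouse, injury was visually rated against untreated controls from 0 (no effect) to 10 (complete control).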

[2] = system: bamyardgrass; experiment: Test B flood test barnyardgrass; type: in vivo, Echinochloa crus-galli
Summary of the method: (§2)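 Plants were grown to the 2-leaf stage before treatment with test chemical, then held in a greenhouse for twelve to sixteen days. Injury was visually rated against untreated controls on a 0–10 scale, where 0 is no effect and 10 is complete control.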

[3] = system: wheat; experiment: Test B pre/postemergence wheat; type: in vivo, Triticum aestivum
Summary of the method: as §1

[4] = system: corn; experiment: Test B pre/postemergence corn; type: in vivo, Zea mays
Summary of the method: as §1

[5] = system: rice; experiment: Test B flood test rice; type: in vivo, Oryza sativa
Summary of the method: as §2

[6] = system: velvetleaf; experiment: Test B pre/postemergence velvetleaf; type: in vivo, Abutilon theophrasti
Summary of the method: as §1

[7] = system: soybean; experiment: Test B pre/postemergence soybean; type: in vivo, Glycine max
Summary of the method: as §1

[8] = system: duck salad; experiment: Test B flood test duck salad; type: in vivo, Heteranthera limosa
Summary of the method: as §2

[9] = system: crabgrass; experiment: Test B pre/postemergence crabgrass; type: in vivo, Digitaria sanguinalis
Summary of the method: as §1

[10] = system: giant foxtail; experiment: Test B pre/postemergence giant foxtail; type: in vivo, Setaria faberii
Summary of the method: as §1

[11] = system: wild oat; experiment: Test B pre/postemergence wild oat; type: in vivo, Avena fatua
Summary of the method: as §1

[12] = system: pigweed; experiment: Test B pre/postemergence pigweed; type: in vivo, Amaranthus retroflexus
Summary of the method: as §1

[13] = system: sugar beet; experiment: Test B pre/postemergence sugar beet; type: in vivo, Beta vulgaris
Summary of the method: as §1

[14] = system: rape; experiment: Test B pre/postemergence rape; type: in vivo, Brassica napus
Summary of the method: as §1

[15] = system: purple nutsedge; experiment: Test B pre/postemergence purple nutsedge; type: in vivo, Cyperus rotundus
Summary of the method: as §1

[16] = system: morningglory; experiment: Test B pre/postemergence morningglory; type: in vivo, Ipomoea hederacea
Summary of the method: as §1

[17] = Postemergence, Rate 62 g/ha, scale 0 to 10, 0 is no effect, 10 is complete control
[18] = Postemergence, Rate 125 g/ha, scale of 0 to 10 where 0 is no effect and 10 is complete control
[19] = Postemergence, Rate 250 g/ha, scale of 0 to 10, 0 is no effect, 10 is complete control
[20] = Postemergence, Rate 500 g/ha, scale of 0 to 10 where 0 is no effect and 10 is complete control
[21] = Preemergence, Rate 62 g/ha, scale 0 to 10 (0 no effect, 10 complete control)
[22] = Preemergence, Rate 125 g/ha, scale of 0 to 10 where 0 is no effect and 10 is complete control
[23] = Preemergence, Rate 250 g/ha, scale 0 to 10 (0 no effect, 10 complete control)
[24] = Preemergence, Rate 500 g/ha, scale of 0 to 10 where 0 is no effect and 10 is complete control
[25] = Rate 62 g/ha, flood test species, Pre-emergence, visual evaluation after twelve to sixteen days
[26] = Rate 125 g/ha, under heading Pre-emergence, flood test species, visual evaluation after twelve to sixteen days
[27] = Rate 250 g/ha, Pre-emergence (flood test species), scale 0 to 10, 0 is no effect, 10 is complete control
[28] = Rate 500 g/ha, Pre-emergence section of Table B, 0 to 10 scale (0 no effect, 10 complete control)

CC(=O)N(C)CCn1c(=O)on(C(=O)N(c2ccc(F)cc2)C(C)C)c1=O [Compound 625]
Plant response rating, Cocklebur [1, 17]: 0
Plant response rating, Cocklebur [1, 18]: 0
Cocklebur plant response rating [1, 19]: 0
Plant response rating, Cocklebur [1, 20]: 0
Cocklebur plant response rating [1, 21]: 0
Cocklebur plant response rating [1, 22]: 0
Plant response rating, Cocklebur [1, 23]: 0
Plant response rating, Cocklebur [1, 24]: 0
Plant response rating, Barnyardgrass (0 to 10 scale, 0 is no effect, 10 is complete control) [2, 25]: 0
Barnyardgrass plant response rating (0 to 10 scale, 0 is no effect, 10 is complete control) [2, 26]: 0
Barnyardgrass plant response rating [2, 27]: 0
Barnyardgrass plant response rating [2, 28]: 0
Plant response rating, Wheat [3, 17]: 0
Plant response rating, Wheat [3, 18]: 0
Wheat plant response rating [3, 19]: 0
Wheat plant response rating [3, 21]: 0
Wheat plant response rating [3, 22]: 0
Plant response rating, Wheat [3, 23]: 0
Plant response rating, Wheat [3, 24]: 3
Plant response rating, Corn [4, 17]: 0
Plant response rating, Corn [4, 18]: 0
Corn plant response rating [4, 19]: 0
Plant response rating, Corn [4, 20]: 3
Corn plant response rating [4, 21]: 0
Corn plant response rating [4, 22]: 0
Plant response rating, Corn [4, 23]: 0
Plant response rating, Corn [4, 24]: 3
Plant response rating, Rice (0 to 10 scale, 0 is no effect, 10 is complete control) [5, 25]: 0
Rice plant response rating (0 to 10 scale, 0 is no effect, 10 is complete control) [5, 26]: 0
Rice plant response rating [5, 27]: 0
Rice plant response rating [5, 28]: 0
Plant response rating, Velvetleaf [6, 17]: 0
Plant response rating, Velvetleaf [6, 18]: 0
Velvetleaf plant response rating [6, 19]: 0
Velvetleaf plant response rating [6, 21]: 0
Velvetleaf plant response rating [6, 22]: 0
Plant response rating, Velvetleaf [6, 23]: 1
Plant response rating, Velvetleaf [6, 24]: 6
Plant response rating, Soybean [7, 17]: 0
Plant response rating, Soybean [7, 18]: 2
Soybean plant response rating [7, 19]: 3
Soybean plant response rating [7, 21]: 0
Soybean plant response rating [7, 22]: 0
Plant response rating, Soybean [7, 23]: 0
Plant response rating, Soybean [7, 24]: 0
Plant response rating, Ducksalad (0 to 10 scale, 0 is no effect, 10 is complete control) [8, 25]: 0
Ducksalad plant response rating (0 to 10 scale, 0 is no effect, 10 is complete control) [8, 26]: 0
Ducksalad plant response rating [8, 27]: 0
Ducksalad plant response rating [8, 28]: 0
Plant response rating, Crabgrass [9, 17]: 1
Plant response rating, Crabgrass [9, 18]: 0
Crabgrass plant response rating [9, 19]: 4
Plant response rating, Crabgrass [9, 20]: 8
Crabgrass plant response rating [9, 21]: 2
Crabgrass plant response rating [9, 22]: 7
Plant response rating, Crabgrass [9, 23]: 8
Plant response rating, Crabgrass [9, 24]: 10
Plant response rating, Giant foxtail [10, 17]: 0
Plant response rating, Giant foxtail [10, 18]: 3
Giant foxtail plant response rating [10, 19]: 5
Plant response rating, Giant foxtail [10, 20]: 9
Giant foxtail plant response rating [10, 21]: 6
Giant foxtail plant response rating [10, 22]: 9
Plant response rating, Giant foxtail [10, 23]: 10
Plant response rating, Giant foxtail [10, 24]: 10
Plant response rating, Wild oats [11, 17]: 0
Plant response rating, Wild oats [11, 18]: 0
Wild oats plant response rating [11, 19]: 0
Wild oats plant response rating [11, 21]: 0
Wild oats plant response rating [11, 22]: 0
Plant response rating, Wild oats [11, 23]: 3
Plant response rating, Wild oats [11, 24]: 5
Plant response rating, Redroot pigweed [12, 17]: 0
Plant response rating, Redroot pigweed [12, 18]: 0
Redroot pigweed plant response rating [12, 19]: 0
Redroot pigweed plant response rating [12, 21]: 0
Redroot pigweed plant response rating [12, 22]: 0
Plant response rating, Redroot pigweed [12, 23]: 4
Plant response rating, Redroot pigweed [12, 24]: 8
Plant response rating, Sugarbeets [13, 17]: 0
Plant response rating, Sugarbeets [13, 18]: 0
Sugarbeets plant response rating [13, 19]: 0
Sugarbeets plant response rating [13, 21]: 0
Sugarbeets plant response rating [13, 22]: 0
Plant response rating, Sugarbeets [13, 23]: 0
Plant response rating, Sugarbeets [13, 24]: 0
Plant response rating, Rape [14, 17]: 0
Plant response rating, Rape [14, 18]: 0
Rape plant response rating [14, 19]: 0
Plant response rating, Rape [14, 20]: 0
Rape plant response rating [14, 21]: 0
Rape plant response rating [14, 22]: 0
Plant response rating, Rape [14, 24]: 4
Plant response rating, Nutsedge [15, 17]: 0
Plant response rating, Nutsedge [15, 18]: 0
Nutsedge plant response rating [15, 19]: 0
Nutsedge plant response rating [15, 21]: 0
Nutsedge plant response rating [15, 22]: 0
Plant response rating, Nutsedge [15, 23]: 0
Plant response rating, Nutsedge [15, 24]: 0
Plant response rating, Morningglory [16, 17]: 0
Plant response rating, Morningglory [16, 18]: 1
Morningglory plant response rating [16, 19]: 1
Plant response rating, Morningglory [16, 20]: 2
Morningglory plant response rating [16, 21]: 0
Morningglory plant response rating [16, 22]: 0
Plant response rating, Morningglory [16, 23]: 2
Plant response rating, Morningglory [16, 24]: 3
